Legend:
[1] = test system: morning glory (Pharbitis nil var. Violet) seedlings; assay: Low light cultivation experiment: number of days until lodging of morning glory young plants; assay type: in vivo; conditions: for Average value (days) of the numbers of days until lodging: 250 mL per pot once every four days, 200 lux, 23° C.; for effectiveness to low light cultivation (days until lodging versus control test solution): verdict in words
Method: As a plant, morning glory (Pharbitis nil var. Violet) seedlings (day 7 after germination) were used. Experiments were conducted in an incubator (low temperature of 23° C.) in daily cycles where a light period (200 lux) is 14 hours and a dark period is 10 hours in a day. Morning glory seeds (purchased from Marutane Co., Ltd., Kyoto) were sown in black plastic pots (commercially available No. 105 size: diameter 105 cm, height 90 cm). Vermiculite was used as culture medium (the wet weight of vermiculite in a pot was 350 g).
250 mL of a test solution was given to each pot once every four days. Test data was taken from 10 morning glory seedlings (young plants) grown per pot. After start of the test, the number of seedlings that lodged was counted every day. A lodging criterion is that the hypocotyl (a rachis under a cotyledon) of a young plant lodges and the cotyledon contacts culture medium, or the whole cotyledon died. Lodged young plants were removed each time. Note that the effect was evaluated using the average value of the numbers of days until lodging. The average value was calculated as follows. For example, when three plants lodged on day 9, four plants lodged on day 10, and three plants lodged on day 11, then the average value is 10.0 (=(9×3+10×4+11×3)/10).
Eight organic acids (aminolevulinic acid, citric acid, malic acid, succinic acid, tartaric acid, acetic acid, oxalic acid, and lactic acid) were prepared. Each organic acid was dissolved in a 500-fold dilution of a liquid fertilizer (VIGOR LIFE V) (a solution in which VIGOR LIFE V was diluted 500-fold with distilled water). Thereafter, the solution was adjusted to pH 5.0 with potassium hydroxide. Note that the organic acid concentration of each test solution was 5 mM.
A 500-fold dilution of VIGOR LIFE V was used as a control test solution.
The eight test solutions and the control test solution were used to conduct the low light cultivation experiment. Note that the upper row of Table 1 indicates the organic acids contained in the test solutions (the control test solution contained no organic acid). Also, the lower row of Table 1 indicates the average values (days) of the numbers of days until lodging of the morning glory young plants.
Six sugars (sucrose, glucose, fructose, trehalose, palatinose, and xylose) were prepared. Each sugar was dissolved in a 500-fold dilution of a liquid fertilizer (VIGOR LIFE V) (a solution in which VIGOR LIFE V was diluted 500-fold with distilled water). Note that the sugar concentration of each test solution was 3%.
Also, a 500-fold dilution of VIGOR LIFE V was used as a control test solution. […]
Note that the upper row of Table 2 indicates the sugars contained in the test solutions (the control test solution contained no sugar). Also, the lower row of Table 2 indicates the average values (days) of the numbers of days until lodging of the morning glory young plants.

[2] = test system: houseplant weeping fig (Ficus benzyamina); assay: Low light cultivation of weeping fig: leaf survival ratio; assay type: in vivo; conditions: after four weeks, verdict in words
Method: The inorganic solution was used as a control reagent. (Reagent 1: the inorganic solution in which aminolevulinic acid is dissolved, Reagent 2: the inorganic solution in which citric acid is dissolved, and Reagent 3: the inorganic solution in which citric acid and sucrose are dissolved).
Note that, in respective reagents, the citric acid concentration was 5 mM, the sucrose concentration was 3%, and the aminolevulinic acid concentration was 100 ppm. The reagents containing citric acid (Reagent 2 and Reagent 3) were adjusted to pH 5.0 with potassium hydroxide.
Low light cultivation was conducted using the reagents and a houseplant weeping fig, with two methods below.
Regular cultivation: four commercially available weeping fig plants in No. 4-sized pots were prepared. The four reagents (Reagents 1 to 3 and the control reagent) were given to the respective plants in an amount of 50 mL once (Monday) every week. Watering was performed in an amount of 50 mL twice (Wednesday and Friday) every week. […]
The effect of each reagent was evaluated by counting the number of leaves for each pot and calculating the survival ratio (%) of leaves every week. Note that the leaf survival ratio (%) was calculated as a “survival ratio (%)=the number of counted weeping fig leaves/the number of weeping fig leaves before low light cultivation (initial value)×100”.

[3] = organic acid 5 mM in 500-fold dilution of VIGOR LIFE V, pH 5.0
[4] = sugar 3% in 500-fold dilution of VIGOR LIFE V

| SMILES | Average value (days) of the numbers of days until lodging [1, 3] [days] | Average value (days) of the numbers of days until lodging [1, 4] [days] | also measured |
| --- | --- | --- | --- |
| CC(=O)O [Acetic acid, acetic acid] | 3.9 |  |  |
| NCC(=O)CCC(=O)O [Aminolevulinic acid, aminolevulinic acid, reference compound] | 2.5 |  |  |
| O=C(O)CC(O)(CC(=O)O)C(=O)O [Citric acid, citric acid] | 12.9 |  | effectiveness to low light cultivation (days until lodging versus control test solution) ([1]; organic acid 5 mM, pH 5.0): effective; effectiveness to low light cultivation (leaf survival ratio versus control reagent) [2]: effective |
| O=C(CO)[C@@H](O)[C@H](O)[C@H](O)CO [Fructose, fructose] |  | 22.1 | effectiveness to low light cultivation (days until lodging versus control test solution) ([1]; sugar 3%): particularly effective |
| CC(O)C(=O)O (centres unmarked) [Lactic acid, lactic acid] | 6.1 |  |  |
| O=C(O)CC(O)C(=O)O (centres unmarked) [Malic acid, malic acid] | 11.1 |  | effectiveness to low light cultivation (days until lodging versus control test solution) ([1]; organic acid 5 mM, pH 5.0): effective |
| O=C(O)C(=O)O [Oxalic acid, oxalic acid] | 3.7 |  |  |
| OC[C@H]1O[C@H](OC[C@H]2OC(O)(CO)[C@@H](O)[C@@H]2O)[C@H](O)[C@@H](O)[C@@H]1O (some centres unmarked) [Palatinose, palatinose] |  | 9.6 |  |
| O=C(O)CCC(=O)O [Succinic acid, succinic acid] | 10.4 |  | effectiveness to low light cultivation (days until lodging versus control test solution) ([1]; organic acid 5 mM, pH 5.0): effective |
| OC[C@H]1O[C@@](CO)(O[C@H]2O[C@H](CO)[C@@H](O)[C@H](O)[C@H]2O)[C@@H](O)[C@@H]1O [Sucrose, sucrose] |  | 25.9 | effectiveness to low light cultivation (days until lodging versus control test solution) ([1]; sugar 3%): particularly effective |
| O=C(O)C(O)C(O)C(=O)O (centres unmarked) [Tartaric acid, tartaric acid] | 4.9 |  |  |
| OC[C@H]1O[C@H](O[C@H]2O[C@H](CO)[C@@H](O)[C@H](O)[C@H]2O)[C@H](O)[C@@H](O)[C@@H]1O [Trehalose, trehalose] |  | 21.9 | effectiveness to low light cultivation (days until lodging versus control test solution) ([1]; sugar 3%): particularly effective |
| O=C[C@H](O)[C@@H](O)[C@H](O)CO [Xylose, xylose] |  | 10.1 |  |

Reference: patent publication US20080250710A1, “Low Light Cultivation Method and Plant Growth Promoting Agent” (priority 2005, published 2008)
